Measurements: PMC6331909, “Identification of Eupatilin from Artemisia argyi as a Selective PPARα Agonist Using Affinity Selection Ultrafiltration LC-MS” (Molecules, 2015)
pIC50: −log10 of the molar value.

Columns and labels:
PPARα [1] = target: T1, PPARα (Homo sapiens, UniProt Q07869); test: TR-FRET competitive binding assay
T1 construct: gene PPARA
T1 sequence (Q07869 196-468 limits assumed): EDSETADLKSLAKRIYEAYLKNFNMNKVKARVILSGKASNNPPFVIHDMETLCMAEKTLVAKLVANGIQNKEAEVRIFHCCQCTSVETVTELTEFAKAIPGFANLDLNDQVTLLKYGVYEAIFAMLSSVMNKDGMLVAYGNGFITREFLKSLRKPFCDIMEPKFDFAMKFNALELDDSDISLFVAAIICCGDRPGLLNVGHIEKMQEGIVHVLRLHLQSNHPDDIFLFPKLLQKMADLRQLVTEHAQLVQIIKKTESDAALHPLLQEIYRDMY

PPARγ = target: T2, PPARγ (Homo sapiens, UniProt P37231); test: TR-FRET competitive binding assay
T2 construct: gene PPARG
T2 sequence (P37231 232-505 limits assumed): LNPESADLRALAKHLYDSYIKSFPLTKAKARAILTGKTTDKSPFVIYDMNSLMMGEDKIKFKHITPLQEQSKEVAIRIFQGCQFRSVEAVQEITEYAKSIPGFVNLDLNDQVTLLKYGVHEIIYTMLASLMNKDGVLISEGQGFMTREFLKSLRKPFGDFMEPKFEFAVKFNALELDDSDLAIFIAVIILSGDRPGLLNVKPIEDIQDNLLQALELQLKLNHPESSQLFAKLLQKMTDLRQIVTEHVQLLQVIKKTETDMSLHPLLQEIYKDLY

PPARα [2] = target: T1, PPARα; test: TR-FRET competitive binding assay; also ultrafiltration LC-MS and cell transactivation

CCC(=O)NC[C@H](Cc1ccc(OCCc2nc(-c3ccccc3)oc2C)cc1)N/C(C)=C\C(=O)c1ccc(C(F)(F)F)cc1 [GW6471]
pIC50 (PPARα [1]): 6.64

O=C(Nc1ccccc1)c1cc([N+](=O)[O-])ccc1Cl [GW9662]
pIC50 (PPARγ): 7.61

COc1ccc(-c2cc(=O)c3c(O)c(OC)c(O)cc3o2)cc1OC [eupatilin]
pIC50 (PPARα [2]): 5.93
